In brackets after ≈: the same amount, converted by molar mass. Counter-ions that a name gives are not always drawn. Like-named read-outs stand apart in the source and are kept apart here.
How the values were obtained:
[1] = system: Candida albicans ATCC 10231; assay: Activity against Candida strains, two-fold dilution method; assay type: cell-based; details: for MIC: Candida albicans, ATCC10231, 20 h
Procedure: (§1) This set of experiments included also one strain each of two other Candida species, Candida tropicalis and Candida kruzei. The M.I.C. were determined by the two-fold dilution method in buffered (0.01 M phosphate buffer, pH 7.4) yeast nitrogen base medium (Difco) supplemented with 1.5 g/liter asparagine in microtiter trays. Inocula were approximately 10^4 colony forming units/ml. Incubation was for 20 h at 30° C. Purpuromycin was dissolved in DMSO and added to the cultures as above.

[2] = system: Candida albicans SKF 2270; assay: as above; assay type: cell-based; details: for MIC: Candida albicans, SKF2270, 20 h
Procedure: as §1

Gardnerella vaginalis = assay: In vitro activity, M.I.C., agar dilution; assay type: cell-based; details: salts calculated as weight of purpuromycin, ATCC 14018 and 10 clinical isolates, all same M.I.C., inoculum ca. 10^5 CFU, 48 h
Procedure: **The assay was carried out on strain ATCC 14018 and 10 clinical isolates
Incubation was for 48 h in an anaerobic hood (37° C.); inoculum ca. 10^5 CFU.

[3] = system: Escherichia coli SKF 12140; assay: In vitro activity, M.I.C., microbroth dilution; assay type: cell-based; details: salts calculated as weight of purpuromycin; 37° C., 20 h
Procedure: (§2) MIC were determined by the microbroth dilution test. Bacteria were grown at 37° C., fungi at 30° C. Incubation was for 20 h, except for Propionibacterium acnes, Bacteroides fragilis, Neisseria gonorrhoeae, Haemophilus influenzae (48 h) and Trichophyton mentagrophytes (72h) Neisseria gonorrhoeae and Haemophilus influenzae were incubated in a CO2 -enriched (5%) atmosphere; Propionibacterium acnes and Bacteroides fragilis in an anaerobic hood. Media used were: Oxoid Iso-sensitest broth (Staphylococci, Enterococcus faecalis and Escherichia coli); Difco Todd-Hewitt broth (streptococci); Difco GC base broth with 1% BBL IsoVitaleX (Neisseria gonorrhoeae); Difco Brain-Heart Infusion broth with 1% Difco supplement C (Haemophilus influenzae); Difco Wilkins-Chalgren broth (Propionibacterium acnes and Bacteroides fragilis); Difco Yeast Nitrogen Base broth with 1.5 g/1 asparagine (Candida albicans); Difco Sabouraud-dextrose broth (Trichophyton mentagrophytes). Inocula were approximately 10^4 CFU/ml.

[4] = system: Enterococcus faecalis ATCC 7080; assay: In vitro activity, M.I.C., microbroth dilution; assay type: cell-based; details: salts calculated as weight of purpuromycin, 37° C., 20 h
Procedure: as §2

[5] = system: Neisseria gonorrhoeae L 997; assay: In vitro activity, M.I.C., microbroth dilution; assay type: cell-based; details: salts calculated as weight of purpuromycin, 37° C., 48 h, 5% CO2
Procedure: as §2

[6] = system: Haemophilus influenzae ATCC 19418; assay: In vitro activity, M.I.C., microbroth dilution; assay type: cell-based; details: salts calculated as weight of purpuromycin; 37° C., 48 h, 5% CO2
Procedure: as §2

Staph. haemolyticus L602 = assay: In vitro activity, M.I.C., microbroth dilution; assay type: cell-based; details: salts calculated as weight of purpuromycin, 37° C., 20 h
Procedure: as §2

[7] = system: Propionibacterium acnes ATCC 6919; assay: In vitro activity, M.I.C., microbroth dilution; assay type: cell-based; details: salts calculated as weight of purpuromycin, 37° C., 48 h, anaerobic hood
Procedure: as §2

[8] = system: Candida albicans SKF 2270; assay: In vitro activity, M.I.C., microbroth dilution; assay type: cell-based; details: salts calculated as weight of purpuromycin, 30° C., 20 h
Procedure: as §2

Strep. pneumoniae L44 = assay: In vitro activity, M.I.C., microbroth dilution; assay type: cell-based; details: salts calculated as weight of purpuromycin; 37° C., 20 h
Procedure: as §2

[9] = system: Trichophyton mentagrophytes SKF 17410; assay: In vitro activity, M.I.C., microbroth dilution; assay type: cell-based; details: salts calculated as weight of purpuromycin, 30° C., 72 h
Procedure: as §2

Staph. aureus Tour L 165 = assay: In vitro activity, M.I.C., microbroth dilution; assay type: cell-based; details: salts calculated as weight of purpuromycin, 37° C., 20 h
Procedure: as §2

[10] = system: Bacteroides fragilis ATCC 23745; assay: In vitro activity, M.I.C., microbroth dilution; assay type: cell-based; details: salts calculated as weight of purpuromycin, 37° C., 48 h, anaerobic hood
Procedure: as §2

Strep. pyogenes L49 = assay: In vitro activity, M.I.C., microbroth dilution; assay type: cell-based; details: salts calculated as weight of purpuromycin, 37° C., 20 h
Procedure: as §2

[11] = system: Staph. epidermidis ATCC 12228; assay: In vitro activity, M.I.C., microbroth dilution; assay type: cell-based; details: salts calculated as weight of purpuromycin, 37° C., 20 h
Procedure: as §2

[12] = system: Candida albicans strain SKF 2270; assay: Topical antifungal activity in ovariectomized rats (yeast vaginal infection); assay type: in vivo, rats (Charles River); details: twice daily for three days
Procedure: The effectiveness of the water soluble salts of purpuromycin in the topical treatment of yeast vaginal infection was also tested in ovariectomized rats (Charles River) treated subcutaneously with 4 mg of estradiol benzoate approximately two weeks after ovariectomy. Five days later they were inoculated intravaginally with approximately 5×10^6 colony forming units (CFU) of Candida albicans strain SKF 2270 in 25 microliters of Nutrient Broth (no.2, Oxoid) containing 15% (vol/vol) of glycerol. Topical intravaginal therapy was twice daily for three days, starting one day after infection, with 100 microliters of a water soluble salt of purpuromycin suspension in a mixture of 10:90 DMSO-polyethylene glycol 400, corresponding to 2 or 5 mg/rat/treatment. The day after the last treatment, vaginal smear samples (calibrated 10 microliter loops) were diluted and plated for viable organism counts on Sabouraud agar (Difco). Each group contained 10 animals.

[13] = system: Trichomonas vaginalis TVL; assay: In vitro activity, M.I.C., microtiter trays; assay type: cell-based; details: salts calculated as weight of purpuromycin, 48 h, anaerobic hood, 37° C.
Procedure: MIC were performed in flat-bottomed microtiter trays, with 0.2 ml per well. The medium was TYM modified basal medium (Merck) plus 10% horse serum (treated to inactivate complement). The inoculum was ca. 10^5 organisms/ml; incubation was for 48 h in an anaerobic hood (37° C.).The microtiter wells were read using an inverted light microscope. The MIC was taken as the lowest concentration at which no live (mobile) protozoa were seen.

[14] = Solubility and pH of solution; assay type: physicochemical
[15] = system: Trichomonas vaginalis strain TVL; assay: Activity against Trichomonas vaginalis, two-fold tube dilution method; assay type: cell-based
Procedure: Trichomonas vaginalis (applicant's internal code TVL) was grown on Trichomonas Culture Medium Base (Merck) plus 10% heat treated horse serum. Inoculum: approximately 10^5 organisms/ml. Incubation: 48 hours at 37° C.

[16] = system: Gardnerella vaginalis ATCC 14018 and other 11 clinical isolates; assay: Activity against Gardnerella vaginalis, standard two fold dilution methods; details: for Number of strains with MIC of 8 mcg/ml: MIC 8 mcg/ml; for Number of strains with MIC of 32 mcg/ml: MIC 32 mcg/ml
Procedure: The strains were grown on Casman medium (Difco) plus 5% (v/v) whole rabbit blood and 0.15 (v/v) lysed rabbit blood. Inoculum size: approximately 10^4 colony forming units per spot. Incubation in an anaerobic hood: 48 hours at 37° C.

[17] = comparative tests, antibacterial agents, read-out: M.I.C.
[18] = comparative tests, antibacterial agents
[19] = MIC >128 mcg/ml, 12 strains tested

CO[C@@]1(NC(=O)Cc2cccs2)C(=O)N2C(C(=O)O)=C(COC(N)=O)CS[C@@H]21 [cefoxitin]
MIC [1, 17]: > 128 µg/mL
MIC [2, 17]: > 128 µg/mL

CC1=C(C(=O)O)N2C(=O)[C@@H](NC(=O)[C@H](N)c3ccccc3)[C@H]2SC1 [cefalexin]
MIC [1, 17]: > 128 µg/mL
MIC [2, 17]: > 128 µg/mL

COC(=O)c1cc2cc3c(c(O)c2c(=O)o1)OC1(Cc2c(O)c4c(c(O)c2O1)C(=O)C(OC)=CC4=O)CC3O [Purpuromycin salt with L-lysine (1:1.5), Salt of purpuromycin with L-lysine]
MIC (Gardnerella vaginalis; Gardnerella vaginalis): 16 µg/mL
M.I.C. [3]: 32 mg/L
MIC ([4]; Enterococcus faecalis, ATCC7080): 0.06 µg/mL
MIC ([5]; Neisseria gonorrhoeae, L997): 0.06 µg/mL
M.I.C. [6]: 0.13 mg/L
MIC (Staph. haemolyticus L602; Staphylococcus haemolyticus, L602): 0.06 µg/mL
MIC ([7]; Cutibacterium acnes, ATCC6919): 0.06 µg/mL
MIC ([8]; Candida albicans, SKF2270): 1 µg/mL
M.I.C. (Strep. pneumoniae L44): 0.13 mg/L
MIC ([9]; Trichophyton mentagrophytes, SKF17410): 1 µg/mL
MIC (Staph. aureus Tour L 165; Staphylococcus aureus, TOURL165): 0.06 µg/mL
MIC ([10]; Bacteroides fragilis, ATCC23745): 0.13 µg/mL
MIC (Strep. pyogenes L49; Streptococcus pyogenes, L49): 0.06 µg/mL
MIC ([11]; Staphylococcus epidermidis, ATCC12228): 0.06 µg/mL
Mean log10 CFU/smear sample ± SD ([12]; 2 mg/rat/treatment intravaginal, vehicle 3.87 ± 0.50, P < 0.01 vs group 1 controls): 2.60 ± 0.49 log10 CFU/smear sample
numbers of viable yeasts cell/sample ([12]; topical intravaginal): significantly reduced numbers of viable yeasts cell/sample
MIC ([13]; Trichomonas vaginalis): 4 µg/mL
pH value of a 0.5% (w/v) solution ([14]; distilled water): 8.5
solubility in distilled water ([14]; room temperature, calculated as purpuromycin, listed as Example 2): 7400 µg/mL

COC(=O)c1cc2cc3c(c(O)c2c(=O)o1)OC1(Cc2c(O)c4c(c(O)c2O1)C(=O)C(OC)=CC4=O)CC3O (stereo not shown) [Purpuromycin salt with TRIS (1:1.5), Salt of purpuromycin with tris-(hydroxymethyl) aminomethane]
M.I.C. (Gardnerella vaginalis): 16 mg/L
M.I.C. [3]: 16 mg/L
M.I.C. [4]: 0.06 mg/L
M.I.C. [5]: 0.06 mg/L
M.I.C. [6]: 0.06 mg/L
M.I.C. (Staph. haemolyticus L602): 0.06 mg/L
M.I.C. [7]: 0.06 mg/L
M.I.C. [8]: 1 mg/L
M.I.C. (Strep. pneumoniae L44): 0.13 mg/L
M.I.C. [9]: 1 mg/L
M.I.C. (Staph. aureus Tour L 165): 0.06 mg/L
M.I.C. [10]: 0.13 mg/L
M.I.C. (Strep. pyogenes L49): 0.06 mg/L
M.I.C. [11]: 0.06 mg/L
M.I.C. [13]: 4 mg/L
pH value of the solution ([14]; solution at 4.5 mg/ml in distilled water): 8.8
solubility ([14]; water, room temperature, calculated as purpuromycin, read-out: solubility in distilled water): 4500 µg/mL

CC[C@H]1OC(=O)[C@H](C)[C@@H](O[C@H]2C[C@@](C)(OC)[C@@H](O)[C@H](C)O2)[C@H](C)[C@@H](O[C@@H]2O[C@H](C)C[C@H](N(C)C)[C@H]2O)[C@](C)(O)C[C@@H](C)C(=O)[C@H](C)[C@@H](O)[C@]1(C)O [erythromycin]
MIC [1]: > 128 µg/mL
MIC [2]: > 128 µg/mL

gentamicin
M.I.C. [1, 18]: higher than 128 microgram/ml
M.I.C. [2, 18]: higher than 128 microgram/ml

CC1(C)S[C@@H]2[C@H](NC(=O)Cc3ccccc3)C(=O)N2[C@H]1C(=O)O [penicillin G]
MIC [1]: > 128 µg/mL
MIC [2]: > 128 µg/mL

CC(=O)N1CCN(c2ccc(OCC3COC(Cn4ccnc4)(c4ccc(Cl)cc4Cl)O3)cc2)CC1 (stereo not shown) [Ketoconazole]
MIC ([15]; Trichomonas vaginalis, 48 hours at 37° C., read-out: MIC): > 128 µg/mL

Clc1ccc(COC(Cn2ccnc2)c2ccc(Cl)cc2Cl)c(Cl)c1 (stereo not shown) [Miconazole]
MIC ([15]; Trichomonas vaginalis, 48 h): 32 µg/mL (≈ 76.9 µM)
MIC ([16]; Gardnerella vaginalis, read-out: MIC on resistant strains): > 128 µg/mL
Number of strains with MIC of 4 mcg/ml ([16]; MIC 4 mcg/ml, 12 strains tested): 1 strains
Number of strains with MIC of 8 mcg/ml ([16]; 12 strains tested): 7 strains
Number of strains with MIC of 32 mcg/ml ([16]; 12 strains tested): 2 strains
Number of strains with MIC of >128 mcg/ml [16, 19]: 2 strains

Clc1ccccc1C(c1ccccc1)(c1ccccc1)n1ccnc1 [Clotrimazole]
MIC ([15]; Trichomonas vaginalis, 48 h): 64 µg/mL (≈ 186 µM)
Number of strains with MIC of 8 mcg/ml ([16]; 12 strains tested): 2 strains
Number of strains with MIC of 16 mcg/ml ([16]; MIC 16 mcg/ml, 12 strains tested): 1 strains
Number of strains with MIC of 32 mcg/ml ([16]; 12 strains tested): 2 strains
Number of strains with MIC of >128 mcg/ml [16, 19]: 2 strains

C[C@@H]1[C@H](O)[C@@H](C)/C=C/C=C/CC/C=C/C=C/C=C/C=C/C(O[C@H]2O[C@H](C)[C@@H](O)[C@H](N)[C@@H]2O)CC2O[C@](O)(CC(O)C(O)CCC(O)CC(O)CC(O)CC(=O)O[C@H]1C)CC(O)C2C(=O)O (stereo partly shown) [Nystatin]
MIC ([15]; 48 hours at 37° C.): > 128 µg/mL
Number of strains with MIC of >128 mcg/ml [16]: 12 strains
MIC on resistant strains ([16]; strains resistant to the named drug): > 128 micrograms/ml

CN[C@@H]1[C@H](O)[C@H](NC)[C@H]2O[C@@]3(O)C(=O)C[C@@H](C)O[C@H]3O[C@@H]2[C@H]1O [spectinomycin]
MIC [1, 17]: > 128 µg/mL
MIC [2, 17]: > 128 µg/mL

O=C(N[C@H](CO)[C@H](O)c1ccc([N+](=O)[O-])cc1)C(Cl)Cl [chloramphenicol]
MIC [1]: > 128 µg/mL
MIC [2]: > 128 µg/mL

CC1(C)S[C@@H]2[C@H](NC(=O)[C@H](N)c3ccccc3)C(=O)N2[C@H]1C(=O)O [ampicillin]
MIC [1, 17]: > 128 µg/mL
MIC [2, 17]: > 128 µg/mL

O=C(Cc1cccs1)N[C@@H]1C(=O)N2C(C(=O)[O-])=C(C[n+]3ccccc3)CS[C@H]12 [cephaloridine]
MIC [1, 17]: > 128 µg/mL
MIC [2, 17]: > 128 µg/mL

C[C@@H]1[C@H](O)[C@@H](C)/C=C/C=C/C=C/C=C/C=C/C=C/C=C/[C@H](O[C@@H]2O[C@H](C)[C@@H](O)[C@H](N)[C@@H]2O)C[C@@H]2O[C@](O)(C[C@@H](O)C[C@@H](O)[C@H](O)CC[C@@H](O)C[C@@H](O)CC(=O)O[C@H]1C)C[C@H](O)[C@H]2C(=O)O [Amphotericin B]
MIC ([15]; Trichomonas vaginalis, 48 h): 64 µg/mL (≈ 69.3 µM)

Reference: patent US5118705A, “Water soluble salts of purpuromycin and pharmaceutical formulations thereof” (Gruppo Lepetit S.p.A., priority 1990, dated 1992)
